These results are taken from patent publication US20220331374A1, “NOVEL SKIN CARE COMPOSITION” (BEIERSDORF AG, priority 2019, published 2022).

The subject of test [1] is C. acnes strain C3. Briefly: Minimum inhibitory concentration (MIC) of cosmetic excipients, strain C3. Format: cell-based, Cutibacterium acnes. As to conditions: % w/vol, incubated anaerobically for 3 days at 37° C., scored visually for growth. The protocol:
(§1) In microbiology, the MIC is the lowest concentration of a chemical which prevents visible growth of bacterium. The resulted MIC value depends both on the microorganism and the test compound. The MIC is determined by preparing concentrations series of the test compound in vitro, incubating the solutions with the separate batches of cultured bacteria, and measuring the results using agar dilution or broth microdilution. For the experiments with C. acnes strains C3 and K8, media comprising yeast extract soy peptone and dextrose were used. The MIC is determined by turbidity.
(§2) A total of 125 cosmetic excipients were tested for their compatibility with C. acnes strains C3 and K8. Hydrophilic compounds were tested in a 96-well plate liquid broth format, poorly soluble compounds were pre-dissolved in DMSO before dilution in liquid broth and hydrophobic or solid compounds were tested in an agar well diffusion test assay. The different dilutions of the test excipients in media were prepared in Falcon tubes and then distributed in a deep well plate using a multistepper. Each well received 1.2 ml and was subsequently inoculated with 120 μl of C. acnes bacteria suspension (strain C3 and K8). From the deep well plate 200 μl were transferred in each well of a clear 96 well replicate plate. The leftover was discarded. The plates were then incubated anaerobically for 3 days at 37° C. Following incubation, the test plates were visually examined and wells were scored for growth or complete growth inhibition to define the minimum inhibitory concentration.
(§3) These excipients are listed in the below table with their compatibility values for C. acnes strains C3 and K8. The compatibility values represent the MIC value of the listed ingredients with the tested C. acnes strains. At this concentration [% w/vol] the tested compound starts interfering with the growth of the tested strains. The compounds can be used in formulations at concentrations below this concentration.

Test [2] concerns C. acnes strain K8. Put plainly: Minimum inhibitory concentration (MIC) of cosmetic excipients, strain K8. As to conditions: % w/vol, incubated anaerobically for 3 days at 37° C., scored visually for growth. Format: cell-based, Cutibacterium acnes. The protocol: as §1, §2, §3

`O=C(O)CC(O)(CC(=O)O)C(=O)O` [citric acid]: the “COMPATABILITY VALUE C3 [%]” value in test [1] is 0.33%. Also, the “COMPATABILITY VALUE K8 [%]” value in test [2] was 0.08%.

tocopherol: the “COMPATABILITY VALUE C3 [%]” value in test [1] worked out at 1.50%. Further, the “COMPATABILITY VALUE K8 [%]” value in test [2] is listed as 1.50%.

In the case of `CC(CO)CO` [methylpropanediol], in test [1], the “COMPATABILITY VALUE C3 [%]” value is listed as 4.00%. For the same compound, the “COMPATABILITY VALUE K8 [%]” value in test [2] is reported as 4.00%.

With `CC(=O)Oc1c(C)c(C)c2c(c1C)CCC(C)(CCC[C@H](C)CCC[C@H](C)CCCC(C)C)O2` (some centres unmarked) [tocopheryl acetate], in test [1], the “COMPATABILITY VALUE C3 [%]” value is given as 1.00%. Also, in test [2], the “COMPATABILITY VALUE K8 [%]” value is reported as 1.00%.

In the case of `CCCCCCC(O)CO` (centres unmarked) [caprylyl glycol], the “COMPATABILITY VALUE C3 [%]” value in test [1] is recorded as 0.18%. Further, the “COMPATABILITY VALUE K8 [%]” value in test [2] was determined as 0.18%.

For the compound `CCO` [ethanol], in test [1], the “COMPATABILITY VALUE C3 [%]” value is reported as 3.75%. Besides, in test [2], the “COMPATABILITY VALUE K8 [%]” value stood at 3.75%.

Take ethylhexyl cocoate: the “COMPATABILITY VALUE C3 [%]” value in test [1] is reported as 10.00%. Moreover, the “COMPATABILITY VALUE K8 [%]” value in test [2] was 10.00%.
